Test results: patent EP4725946A1, “IRAK4 DEGRADATION AGENT AND USE THEREOF” (Guangzhou Unirise Pharmaceutical Co., Ltd., priority 2023, dated 2024)
Read-outs that look alike come from different tables or passages of the source.

Experiments:
[1] = Pharmacokinetic study in mice; type: in vivo; settings: male mice, plasma
Method: Six male mice weighing 20-30 g were randomly divided into two groups. One group received an intravenous (IV) administration of the test compound at a dose of 2 mg/kg, while the other group received an oral (gavage) administration at a dose of 10 mg/kg. Blood samples were collected at 0.083, 0.25, 0.5, 1, 2, 4, 6, 8, and 24 hours post-administration. Plasma samples were processed and analyzed using LC/MS/MS in MRM)mode. A validated standard curve was established for the quantitative determination of the target compound in plasma, enabling the generation of plasma drug concentration-time profiles. Pharmacokinetic parameters were calculated using WinNonlin software with a non-compartmental model.

IRAK4 protein = target: T1, IRAK4 protein (Homo sapiens, UniProt Q9NWZ3); experiment: IRAK4 Degradation Assay in THP-1 Cells (Western Blot); type: cell-based; parameters: endogenous in cells; host or cells: THP-1 cells
T1 sequence (Q9NWZ3 1-460): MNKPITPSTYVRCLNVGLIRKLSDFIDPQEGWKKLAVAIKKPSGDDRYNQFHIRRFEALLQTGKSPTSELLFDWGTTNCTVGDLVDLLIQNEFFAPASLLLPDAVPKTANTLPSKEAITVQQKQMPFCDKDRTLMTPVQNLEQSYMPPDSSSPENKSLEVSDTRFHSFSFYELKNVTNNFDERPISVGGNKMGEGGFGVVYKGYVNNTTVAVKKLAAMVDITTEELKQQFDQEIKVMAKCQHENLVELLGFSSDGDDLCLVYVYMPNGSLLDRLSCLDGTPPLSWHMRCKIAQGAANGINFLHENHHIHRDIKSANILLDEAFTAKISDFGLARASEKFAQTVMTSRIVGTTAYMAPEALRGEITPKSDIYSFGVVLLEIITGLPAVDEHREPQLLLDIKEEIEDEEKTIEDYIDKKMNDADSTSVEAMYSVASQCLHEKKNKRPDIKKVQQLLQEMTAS
Method: In a 6-well cell culture plate, an appropriate number of THP-1 cells were seeded. The plate was placed in a 5% CO2 incubator at 37°C for overnight culture. Then, the test compound's dimethyl sulfoxide solution was added, with the final concentration ranging from 0.0128 to 1000 nM. After continuous culture for 24 hours, the culture medium was removed, and the cells were collected in a 1.5 mL centrifuge tube. After adding lysis buffer and grinding thoroughly, the mixture was placed on ice for 30 minutes. It was then centrifuged at 15,000 xg and 4°C for 20 minutes. The supernatant was taken, and the level of IRAK4 protein was detected by Western Blot.

[2] = THP-1, THP-1 cells, 24 hours, 0.0128 to 1000 nM, IRAK4 protein level by Western Blot, read-out: Dmax%
[3] = THP-1 cells, 24 hours, 0.0128 to 1000 nM, IRAK4 protein level by Western Blot, read-out: DC50
[4] = mouse, iv, i.v. (2 mg/kg), read-out: AUC0-t
[5] = mouse, po, p.o. (10 mg/kg), read-out: AUC0-t
[6] = mouse, po, p.o. (10 mg/kg), read-out: Cmax
[7] = THP-1 cells, 24 hours, 0.0128 to 1000 nM, IRAK4 protein level by Western Blot, read-out: Dmax%

Compound | AUC(0-t) ([1]; i.v. (2 mg/kg)) [ng·h/mL] | T1/2 ([1]; i.v. (2 mg/kg)) [h] | AUC(0-t) ([1]; p.o. (10 mg/kg)) [ng·h/mL] | Cmax ([1]; p.o. (10 mg/kg)) [ng/mL] | T1/2 ([1]; p.o. (10 mg/kg)) [h] | Tmax ([1]; mouse, po, p.o. (10 mg/kg)) [h] | Dmax (IRAK4 protein; [2]) [%] | DC50 (IRAK4 protein; [3]) [nM] | half-life ([1]; mouse, iv, i.v. (2 mg/kg)) [h] | AUC(0-t) [1, 4] [ng·h/mL] | half-life ([1]; mouse, po, p.o. (10 mg/kg)) [h] | AUC(0-t) [1, 5] [ng·h/mL] | Cmax [1, 6] [ng/mL] | Dmax (IRAK4 protein; [7]) [%] | DC50 (IRAK4 protein) [nM] | Dmax (IRAK4 protein; THP-1) [%]
Cn1c(=O)n(C2CCC(=O)NC2=O)c2cccc(C#CCO[C@H]3CC[C@H](CN4CCC5(CC4)Cc4cc(NC(=O)c6cnn7cccnc67)c(N6CCC(CO)CC6)cc4O5)CC3)c21 (relative stereo) [Compound 34] | 7155 | 2.69 | 14793 | 1540 | 3.70 | 2 | 90.6 | 2.2 | – | – | – | – | – | – | – | –
Cn1c(=O)n(C2CCC(=O)NC2=O)c2cccc(C#CCO[C@H]3CC[C@@H](CN4CCC5(CC4)Cc4cc(NC(=O)c6cnn7cccnc67)c(N6CCC(CO)CC6)cc4O5)CC3)c21 (relative stereo) [Compound 55] | – | – | – | – | – | 1 | 89.3 | 3.44 | 3 | 6190 | 3.36 | 10000 | 1120 | – | – | –
Cn1c(=O)n(C2CCC(=O)NC2=O)c2cccc(CN3CCC(CCN4CCC5(CC4)Oc4cc(NC(=O)c6cnn7cccnc67)c(N6CCC(CO)CC6)cc4O5)CC3)c21 (stereo not shown) [Compound 15] | – | – | – | – | – | 6 | – | 2.22 | 22.2 | 14400 | 23.6 | 23200 | 1320 | 86 | – | –
Cn1c(=O)n(C2CCC(=O)NC2=O)c2cccc(C#CCO[C@H]3CC[C@H](CN4CCC5(CC4)Cc4cc(NC(=O)c6coc7cccnc67)c(N6CCC(CO)CC6)cc4O5)CC3)c21 (stereo partly shown) [Compound 35] | 10556 | – | 23388 | – | 4.34 | 2 | – | 4.69 | 3.78 | – | – | – | 2070 | 93.4 | – | –
Cc1cnc2c(C(=O)Nc3cc4c(cc3N3CCC(CO)CC3)OC3(CCN(C[C@H]5CC[C@H](OCC#Cc6cccc7c6n(C)c(=O)n7C6CCC(=O)NC6=O)CC5)CC3)C4)cnn2c1 (stereo partly shown) [Compound 36] | – | – | – | – | – | 2 | – | 2.27 | 2.84 | 8730 | 3.22 | 18000 | 1740 | 86.5 | – | –
Cn1c(=O)n(C2CCC(=O)NC2=O)c2cccc(C#CCO[C@H]3CC[C@H](CN4CCC5(CC4)Cc4cc(NC(=O)c6cnn7cc(Cl)cnc67)c(N6CCC(CO)CC6)cc4O5)CC3)c21 (stereo partly shown) [Compound 37] | – | – | – | – | – | 4 | – | 3.32 | 3.36 | 12100 | 3.94 | 29300 | 2150 | 90.5 | – | –
Cn1c(=O)n(C2CCC(=O)NC2=O)c2cccc(C#CCO[C@H]3CC[C@H](CN4CCC5(CC4)Cc4cc(NC(=O)c6cnn7cc(F)cnc67)c(N6CCC(CO)CC6)cc4O5)CC3)c21 (stereo partly shown) [Compound 38] | 11671 | 4.07 | 26962 | 2277 | 4.27 | 4 | – | 2.81 | – | – | – | – | – | 88.8 | – | –
Cn1c(=O)n(C2CCC(=O)NC2=O)c2cccc(C#CCO[C@H]3CC[C@H](CN4CCC5(CC4)Cc4cc(NC(=O)c6cnn7cccnc67)c(N6CCC(C(C)(C)O)CC6)cc4O5)CC3)c21 (stereo partly shown) [Compound 41] | – | – | – | – | – | 2 | – | 3.86 | 2.13 | 5120 | 2.62 | 21200 | 2990 | 90.5 | – | –
Cn1c(=O)n(C2CCC(=O)NC2=O)c2cccc(C#CCO[C@H]3CC[C@H](CN4CCC5(CC4)Cc4cc(NC(=O)c6cnc7cccnn67)c(N6CCC(CO)CC6)cc4O5)CC3)c21 (stereo partly shown) [Compound 45] | 3192 | – | 7391 | 1190 | 4.40 | 2 | – | 1.52 | 2.02 | – | – | – | – | 87.4 | – | –
Cn1c(=O)n(C2CCC(=O)NC2=O)c2cccc(C#CCO[C@H]3CC[C@H](CN4CCC5(CC4)Cc4cc(NC(=O)c6cnn7cccnc67)c(N6CCC(O)CC6)cc4O5)CC3)c21 (stereo partly shown) [Compound 46] | 14148 | 2.76 | 42143 | 3493 | 3.82 | 4 | – | 1.37 | – | – | – | – | – | 87 | – | –
Cn1c(=O)n(C2CCC(=O)NC2=O)c2cccc(N3CCN(C(=O)CN4CCC5(CC4)Cc4cc(NC(=O)c6cnn7cccnc67)c(N6CCC(CO)CC6)cc4O5)CC3)c21 (stereo not shown) [Compound 70] | – | – | – | – | – | 2 | – | – | 3.1 | 7880 | 2.28 | 6680 | 870 | – | 1.1 | 91.2
Cn1nc(N2CCC(=O)NC2=O)c2cc(F)c(N3CCC(O)(CC(=O)N4CCC5(CC4)Cc4cc(NC(=O)c6cnn7cccnc67)c(N6CCC(CO)CC6)cc4O5)CC3)cc21 [Example 77] | – | – | – | – | – | 1 | 85.7 | 1.28 | 4.68 | 12900 | 3.85 | 38200 | 4830 | – | – | –
Cc1cc(-c2nc(C(=O)Nc3cc4c(cc3N3CCC(CO)CC3)OC3(CCN(C[C@H]5CC[C@H](OCC#Cc6cccc7c6n(C)c(=O)n7C6CCC(=O)NC6=O)CC5)CC3)C4)co2)ccn1 (stereo partly shown) [Example 89] | – | – | – | – | – | – | – | 6.02 | – | – | – | – | – | 84.6 | – | –
Cn1c(=O)n(C2CCC(=O)NC2=O)c2cccc(C#CCO[C@H]3CC[C@H](CN4CCC5(CC4)Cc4cc(NC(=O)c6cnn7cc(CO)cnc67)c(N6CCC(CO)CC6)cc4O5)CC3)c21 (stereo partly shown) [Example 90] | – | – | – | – | – | – | – | 2.24 | – | – | – | – | – | 87.1 | – | –
Cn1c(=O)n(C2CCC(=O)NC2=O)c2cccc(N3CCC(CCN4CCC5(CC4)Cc4cc(NC(=O)c6cnn7cccnc67)c(N6CCC(CO)CC6)cc4O5)CC3)c21 (stereo not shown) [Example 96] | – | – | – | – | – | – | 92 | 1.65 | – | – | – | – | – | – | – | –
O=C1CCC(N2C(=O)c3cc(F)c(N4CCC(CN5CCC6(CC5)Cc5cc(NC(=O)c7cnn8cccnc78)c(N7CCC(CO)CC7)cc5O6)CC4)cc3C2=O)C(=O)N1 (stereo not shown) [Example 97] | – | – | – | – | – | – | 87.9 | 7.85 | – | – | – | – | – | – | – | –
Cn1c(=O)n(C2CCC(=O)NC2=O)c2cccc(C3CCC(CN4CCC5(CC4)Cc4cc(NC(=O)c6cnn7cccnc67)c(N6CCC(CO)CC6)cc4O5)CC3)c21 (stereo not shown) [Example 98] | – | – | – | – | – | – | 88.6 | 1.1 | – | – | – | – | – | – | – | –
